Reference: patent US20260138969A1 (Korea Research Institute of Chemical Technology, priority 2023, published 2026)

How the values were obtained:
MDR1 = assay: MDR-MDCK cell membrane permeability assessment; format: in vitro ADME; conditions: dog; MDCK-MDR1 monolayer
Protocol: (§1) MDCK-MDR1 cells (5×10^5 cells/mL) were incubated on a 24-transwell plate (Corning, NY, USA) for 4 days to measure permeability through a single layer of MDR-MDCK cells. The medium was replaced with a new medium every two days, and the electrical resistance between epithelial tissues (TEER) was measured using a Millicell® ERS-2 Volohmmeter (Merck KGaA, Darmstadt, Germany), and the cell membrane permeability test was performed after confirming that this value was greater than or equal to 300 Ohm.cm^2.
(§2) The apical and basolateral chambers were washed twice each in the order of Hanks' Balanced Salt Solution (HBSS) containing DPBS buffer and 10 mM Hydroxyethyl piperazine Ethane sulfonic acid (HEPES), and in the final washing step, HBSS was filled and maintained at a stable state at 37° C. for 30 minutes. After 30 minutes, the test material was instilled in each chamber and left at 37° C. for 2 hours, and the culture medium of the transferred layer was collected at 30-minute intervals, and the collected amount was supplemented with new HBSS.
(§3) The apparent permeability coefficient (Papp, cm/sec) was calculated using the following formula:
(§4) [formula] • Papp: Apparent permeability • dQ/dt: Permeability of the drug • A: Area of the filter membrane on which the cells are laid • C_0: Initial concentration of the drug
(§5) In addition, the Efflux ratio was calculated as follows: […]

[1] = MDR-MDCK cell membrane permeability assessment; format: in vitro ADME; conditions: dog; MDCK-MDR1 monolayer, 37° C., 2 hours
Protocol: as §1, §2, §3, §4, §5

[2] = target: T1, recombinant human ASK1 protein (Homo sapiens, UniProt Q99683); assay: Evaluation of ASK1 inhibition activity ([gamma-33P]-ATP, scintillation counting); format: biochemical
T1 sequence (Q99683 1-1374): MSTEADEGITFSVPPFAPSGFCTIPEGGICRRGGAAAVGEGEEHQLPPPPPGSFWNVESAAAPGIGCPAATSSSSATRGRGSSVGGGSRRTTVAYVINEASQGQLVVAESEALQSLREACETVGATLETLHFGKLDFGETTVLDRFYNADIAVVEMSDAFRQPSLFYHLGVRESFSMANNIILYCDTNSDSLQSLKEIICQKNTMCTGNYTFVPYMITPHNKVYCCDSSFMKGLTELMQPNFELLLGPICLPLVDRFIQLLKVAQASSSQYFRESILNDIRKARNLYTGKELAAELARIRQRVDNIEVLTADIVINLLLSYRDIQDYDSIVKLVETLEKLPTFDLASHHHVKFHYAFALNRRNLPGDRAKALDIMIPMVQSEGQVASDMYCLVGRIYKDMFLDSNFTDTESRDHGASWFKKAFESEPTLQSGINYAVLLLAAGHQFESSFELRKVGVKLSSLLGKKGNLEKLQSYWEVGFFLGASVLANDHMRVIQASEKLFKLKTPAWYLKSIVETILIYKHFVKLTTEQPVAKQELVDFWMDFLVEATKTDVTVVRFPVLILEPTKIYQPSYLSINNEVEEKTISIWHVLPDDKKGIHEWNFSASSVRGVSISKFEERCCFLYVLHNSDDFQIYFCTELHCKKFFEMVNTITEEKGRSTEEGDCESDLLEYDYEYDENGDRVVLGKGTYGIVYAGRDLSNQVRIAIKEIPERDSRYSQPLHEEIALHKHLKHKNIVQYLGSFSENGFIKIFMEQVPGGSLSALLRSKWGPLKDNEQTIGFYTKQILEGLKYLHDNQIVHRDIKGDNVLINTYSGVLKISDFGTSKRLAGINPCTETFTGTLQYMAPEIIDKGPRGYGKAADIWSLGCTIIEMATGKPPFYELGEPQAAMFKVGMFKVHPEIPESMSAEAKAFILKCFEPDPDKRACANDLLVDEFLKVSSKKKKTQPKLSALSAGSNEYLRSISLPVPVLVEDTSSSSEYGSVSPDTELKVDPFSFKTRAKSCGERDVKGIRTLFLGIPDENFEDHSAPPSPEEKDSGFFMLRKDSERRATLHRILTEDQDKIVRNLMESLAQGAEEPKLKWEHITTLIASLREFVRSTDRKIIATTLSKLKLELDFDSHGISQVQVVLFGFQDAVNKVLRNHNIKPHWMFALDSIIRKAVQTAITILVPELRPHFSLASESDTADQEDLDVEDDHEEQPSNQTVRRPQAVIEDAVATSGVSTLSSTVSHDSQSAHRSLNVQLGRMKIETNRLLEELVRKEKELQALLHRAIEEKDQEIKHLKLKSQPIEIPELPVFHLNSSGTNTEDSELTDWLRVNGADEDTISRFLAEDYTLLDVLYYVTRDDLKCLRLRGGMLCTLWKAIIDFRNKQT
Protocol: The recombinant human ASK1 protein was initiated by adding a mixture of Mg/ATP to the reaction solution (8 mM MOPS PH 7.0, 0.2 mM EDTA, 0.33 mg/mL myelin basic protein, 10 mM Mg Acetate and [gamma-33P]-ATP), and the reaction was terminated by adding 0.5% phosphoric acid after 40 min at room temperature.

[3] = tested on: α-Syn transgenic Parkinson's disease mouse model; assay: α-Syn transgenic Parkinson's disease mouse model: step error (beam test); format: in vivo; conditions: at 7 and 9 months; Memantine 10 mg/kg, Example 3 2/10/50 mg/kg, Example 2 2 mg/kg PO QD; vs G2
Protocol: (§6) The test drug was administered once daily (QD) via oral administration (PO) with a solution of 5 ml/kg for 5 months from 4 months to 9 months of age. Motor behavior tests (beam test) and neurological scores (modified Irwin test) were performed at 4 months (before administration), 7 months, and 9 months. After the final behavioral test, tissue samples were taken. Weight was measured on the same day once a week from 4 months of age until the end of the study.
The procedure described by Fleming et al. (J Neurosci, 24:9434-40, 2004) was adopted as the beam test (Challenging Beam Traversal). Exercise capacity was measured with a new beam test that was a modification of the existing beam walking test. The beam is made of Plexiglas and consists of four sections (each 25 cm and a total length of 1 m), each with a different width. The beam is designed to start at 3.5 cm wide and gradually narrow in increments of 0.5 cm×1 cm. A shelf 1 cm wide was placed 1.0 cm below the top surface of the beam.
The mouse was trained to cross the length of the beam, starting from the widest section and ending with the narrowest and most difficult section. The narrow end of the beam is designed to connect directly to the mouse's house cage. The mice were trained for two days before testing, and all training was carried out without a mesh grid. On the first day, two auxiliary exercises were performed, in which the mouse was placed on a beam and the home cage was placed close to the mouse. This induces it to move forward along the beam. […]
The error was counted if the limb (front or hind leg) passed through the grid during forward movement and was visible between the grid and the beam surface. […] Error was measured by scoring each limb slippage individually. For example, a mouse with three limbs slipping off the grid in one step was rated with an error score of 3 points, while a mouse with only one limb slipped off the grid in one step was evaluated with an error score of 1 in that step. […] The number of step errors and the time it took to cross were measured and averaged in all five experiments.

[4] = tested on: α-Syn transgenic Parkinson's disease mouse model; assay: α-Syn transgenic Parkinson's disease mouse model: microglial reduction (Iba-1); format: in vivo; conditions: 9 months of age; Memantine 10 mg/kg (G3), G4 2 mg/kg, G5 10 mg/kg, G7 2 mg/kg PO QD
Protocol: as §6
At 9 months of age, the measurement period ended, the mice were anesthetized, and then the experiment was terminated by cardiac puncture according to IACUC guidelines. Mice were perfused transcardially with 0.9% saline for tissue staining, followed by 4% paraformaldehyde until the mice were fixed. The brains were isolated and immobilized by soaking in 4% paraformaldehyde at 4° C. for 24 hours, followed by 30% sucrose added to PBS containing 0.02% sodium azide and stored at 4° C. for 3 days. Brain samples embedded in OCT compounds were sectioned to a thickness of 20 μm using Leica CM1950 (Leica Microsystems, Germany). The sections were stored at 4° C. in a preservation solution until they were stained by antibodies. […]
To assess microgliosis of the cortex, Iba-1-stained brain tissue was imaged in experimental example 10.5 using an immunofluorescence microscope (Olympus, BZ21) in Olympus. Each marker was manually counted to quantify Iba1.

efflux ratio at 2 h (MDR1) | Papp A→B at 2 h [1] [×10⁻⁶ cm/s] | Papp B→A at 2 h [1] [×10⁻⁶ cm/s] | IC50 [2] [nM] | SMILES | number of step errors (beam test) [3] | number of IBA-1 positive cells in the cerebral cortex [4]
1.53 | 57.3 ± 4.23 | 87.4 ± 3.39 | 92 | Cc1cc(F)c(C(=O)Nc2cccc(-n3nnc4c3CCCCC4)n2)cc1-n1cnc(C2CC2)c1 [Example 4, 5-(4-cyclopropyl-1H-imidazole-1-yl)-2-fluoro-4-methyl-N-(6-(5,6,7,8-tetrahydrocyclohepta[d][1,2,3]triazole-1 (4H)-yl)pyridine-2-yl)benzamide] | – | –
– | – | – | – | CC12CC3CC(C)(C1)CC(N)(C3)C2 [Memantine, reference compound] | significant reduction in the number of step errors compared to Group G2 | significantly reduced
